These results are taken from ChEMBL document CHEMBL1149847, “Erigeroflavanone, a flavanone derivative from the flowers of Erigeron annuus with protein glycation and aldose reductase inhibitory activity” (J Nat Prod, 2008).

Data set [1] has as its target Aldo-keto reductase family 1 member B1 (Rattus norvegicus, UniProt P07943). Description: Inhibition of rat lens aldose reductase.
A short description of data set [2]: Inhibition of advanced glycation end products formation after 14 days. In kind it is physicochemical.

One may read the IC50 as the midpoint of a concentration-inhibition curve.

As to `O=c1c(O)c(-c2ccc(O)cc2)oc2cc(O)cc(O)c12` [KAEMPFEROL], half-maximal inhibition in data set [1] (IC50) required 1.33 µM. For `O=c1cc(-c2ccc(O)cc2)oc2cc(O)cc(O)c12` [APIGENIN], the IC50 in data set [2] was found to be 89.9 µM; in data set [1] it was 6.67 µM. Consider `COC(=O)[C@H]1O[C@@H](Oc2cc(O)c3c(=O)cc(-c4ccc(O)cc4)oc3c2)[C@H](O)[C@@H](O)[C@@H]1O`, for which the IC50 in data set [1] was 9.02 µM. As for `O=C(O)[C@H]1O[C@@H](Oc2cc(O)c3c(=O)cc(-c4ccc(O)cc4)oc3c2)[C@H](O)[C@@H](O)[C@@H]1O`, the IC50 in data set [2] was found to be 107 µM; in data set [1], 1.28 µM. Regarding `O=c1c(O[C@@H]2O[C@H](CO)[C@@H](O)[C@H](O)[C@H]2O)c(-c2ccc(O)cc2)oc2cc(O)cc(O)c12` [ASTRAGALIN], the IC50 in data set [2] came out at 179 µM. `COC(=O)C[C@]1(O)C(=O)c2c(O)cc(O)cc2O[C@]1(OC)c1ccc(O)c(O)c1` (relative stereo) [ERIGEROFLAVANONE] displayed an IC50 in data set [1] of 46.9 µM. This counts as double-digit micromolar. In the case of `C[C@@H]1O[C@@H](Oc2c(-c3ccc(O)c(O)c3)oc3cc(O)cc(O)c3c2=O)[C@H](O)[C@H](O)[C@H]1O` [QUERCITRIN], the IC50 in data set [1] was determined as 0.16 µM. `N=C(N)NN` [PIMAGEDINE] returned an IC50 in data set [2] of 961 µM.
